# Assay results from PubChem BioAssay AID316 (DTP/NCI, 2004).
# Values joined by “and” are separate entries in the source; they are usually repeats but may differ in a detail not shown here. Identical values can stand only once. Toxic doses and inconclusive results are not listed.
# Tested on: P1534 leukemia ip, CD2F1 mice, survival T/C
# Assay: NCI In Vivo Anticancer Drug Screen. Data for tumor model P1534 Leukemia (intraperitoneal) in CD2F1 (CDF1) mice
# Details: endpoint: mean survival time, higher = longer survival
# Method: The antitumor activity of compounds was measured in mice bearing transplantable tumors. Survival or tumor size were measured and the results are expressed as the measurement made in the treated group (T) divided by the measurement made in the vehicle treated control group (C). The tumor model used in this assay is P1534 Leukemia (intraperitoneal) in CD2F1 (CDF1) mice
# [1] = dose: 32.0 mg/kg/injection, schedule: Q01DX010 (ip), vehicle: saline
# [2] = dose: 64.0 mg/kg/injection, schedule: Q01DX010 (ip), vehicle: saline
# [3] = dose: 25.0 mg/kg/injection, schedule: Q01DX010 (ip), vehicle: saline
# [4] = dose: 50.0 mg/kg/injection, schedule: Q01DX010 (ip), vehicle: saline
# [5] = dose: 100.0 mg/kg/injection, schedule: Q01DX010 (ip), vehicle: saline
# [6] = dose: 200.0 mg/kg/injection, schedule: Q01DX010 (ip), vehicle: saline
# [7] = dose: 12.5 mg/kg/injection, schedule: Q01DX010 (ip), vehicle: saline
# [8] = dose: 0.16 mg/kg/injection, schedule: Q01DX010 (ip), vehicle: saline
# [9] = dose: 0.25 mg/kg/injection, schedule: Q01DX010 (ip), vehicle: saline
# [10] = dose: 0.38 mg/kg/injection, schedule: Q01DX010 (ip), vehicle: saline
# [11] = dose: 5.0 mg/kg/injection, schedule: Q01DX010 (ip), vehicle: saline
# [12] = dose: 10.0 mg/kg/injection, schedule: Q01DX010 (ip), vehicle: saline
# [13] = dose: 20.0 mg/kg/injection, schedule: Q01DX010 (ip), vehicle: saline
# [14] = dose: 40.0 mg/kg/injection, schedule: Q01DX010 (ip), vehicle: saline
# [15] = dose: 12.5 mg/kg/injection, schedule: Q01DX010 (sc), vehicle: steriod suspending solution
# [16] = dose: 25.0 mg/kg/injection, schedule: Q01DX010 (sc), vehicle: steriod suspending solution
# [17] = dose: 125.0 mg/kg/injection, schedule: Q01DX010 (ip), vehicle: saline
# [18] = dose: 62.5 mg/kg/injection, schedule: Q01DX010 (ip), vehicle: saline
# [19] = dose: 6.25 mg/kg/injection, schedule: Q01DX010 (ip), vehicle: saline
# [20] = dose: 8.0 mg/kg/injection, schedule: Q01DX010 (ip), vehicle: saline
# [21] = dose: 16.0 mg/kg/injection, schedule: Q01DX010 (ip), vehicle: saline
# [22] = dose: 50.0 mg/kg/injection, schedule: Q01DX010 (sc), vehicle: steriod suspending solution
# [23] = dose: 100.0 mg/kg/injection, schedule: Q01DX010 (sc), vehicle: steriod suspending solution
# [24] = dose: 0.78 mg/kg/injection, schedule: Q01DX010 (ip), vehicle: saline
# [25] = dose: 1.56 mg/kg/injection, schedule: Q01DX010 (ip), vehicle: saline
# [26] = dose: 3.13 mg/kg/injection, schedule: Q01DX010 (ip), vehicle: saline
# [27] = dose: 400.0 mg/kg/injection, schedule: Q01DX010 (ip), vehicle: saline
# [28] = dose: 2.5 mg/kg/injection, schedule: Q01DX010 (ip), vehicle: saline
structure (smiles),measurement,setting,value
COc1ccc(/C=N/NC(N)=S)cc1,T/C,[1],100 % of control
same,T/C,[2],100 % of control
same,T/C,"dose: 128.0 mg/kg/injection, schedule: Q01DX010 (ip), vehicle: saline",100 % of control
same,T/C,"dose: 256.0 mg/kg/injection, schedule: Q01DX010 (ip), vehicle: saline",106 % of control
Cc1cc2nc3c(=O)[nH]c(=O)nc-3n(CC(O)C(O)C(O)C(O)CO)c2cc1C (centres undefined),T/C,[3],111 % of control
same,T/C,[4],107 % of control and 100 % of control
same,T/C,[5],107 % of control and 111 % of control
same,T/C,[6],111 % of control
O=C(NCCCCC(NC(=O)OCc1ccccc1)C(=O)NCCCCCCNCCCCCCNC(=O)C(CCCCNC(=O)OCc1ccccc1)NC(=O)OCc1ccccc1)OCc1ccccc1 (centres undefined),T/C,[7],107 % of control
same,T/C,[3],114 % of control
same,T/C,[4],114 % of control
CC(=O)OC(C)(C)/C=C/C(=O)[C@](C)(O)[C@H]1[C@H](O)C[C@@]2(C)[C@@H]3CC=C4[C@@H](C[C@H](O)C(=O)C4(C)C)[C@]3(C)C(=O)C[C@]12C,T/C,[8],96 % of control
same,T/C,[9],100 % of control
same,T/C,[10],103 % of control
C[C@@H]1C[C@@H]([C@H](O)CC2CC(=O)NC(=O)C2)C(=O)[C@@H](C)C1,T/C,[11],112 % of control and 100 % of control
same,T/C,[12],111 % of control and 112 % of control
same,T/C,[13],111 % of control
same,T/C,[14],105 % of control
CC(=O)O[C@]1(C(C)=O)CC[C@H]2[C@@H]3C[C@H](C)C4=CC(=O)C=C[C@]4(C)[C@@]3(F)[C@@H](O)C[C@@]21C,T/C,[15],103 % of control
same,T/C,[16],92 % of control
c1ccc(CCSc2ncnc3nc[nH]c23)cc1,T/C,[17],100 % of control
same,T/C,"dose: 500.0 mg/kg/injection, schedule: Q01DX010 (ip), vehicle: saline",103 % of control
COC1=C(N)C(=O)c2nc(-c3nc(C(=O)O)c(C)c(-c4ccc(OC)c(OC)c4O)c3N)ccc2C1=O,T/C,"dose: 0.06 mg/kg/injection, schedule: Q01DX010 (ip), vehicle: saline",117 % of control
same,T/C,"dose: 0.09 mg/kg/injection, schedule: Q01DX010 (ip), vehicle: saline",110 % of control
same,T/C,"dose: 0.13 mg/kg/injection, schedule: Q01DX010 (ip), vehicle: saline",103 % of control
CC(=O)Nc1ccc(/C=N/Nc2ccc([N+](=O)[O-])cn2)cc1,T/C,[18],100 % of control
same,T/C,[17],100 % of control
same,T/C,"dose: 250.0 mg/kg/injection, schedule: Q01DX010 (ip), vehicle: saline",96 % of control
O=NN(CCCl)C(=O)NCCCl,T/C,[19],265 % of control and 290 % of control
same,T/C,[7],150 % of control and 170 % of control
CC[C@]12C=CCN3CC[C@@]4(c5ccc(OC)cc5N(C)[C@H]4[C@@](O)(C(=O)OC)[C@@H]1O)[C@@H]32,T/C,"dose: 3.75 mg/kg/injection, schedule: Q01DX010 (ip), vehicle: saline",93 % of control
same,T/C,"dose: 7.5 mg/kg/injection, schedule: Q01DX010 (ip), vehicle: saline",100 % of control
same,T/C,"dose: 15.0 mg/kg/injection, schedule: Q01DX010 (ip), vehicle: saline",93 % of control
same,T/C,"dose: 30.0 mg/kg/injection, schedule: Q01DX010 (ip), vehicle: saline",100 % of control
same,T/C,[4],96 % of control
same,T/C,[5],92 % of control
O=C(Nc1ccc(C2=NCCN2)cc1)c1cccc(C(=O)Nc2ccc(C3=NCCN3)cc2)c1,T/C,[20],109 % of control
same,T/C,[21],118 % of control
same,T/C,[1],154 % of control
same,T/C,[2],163 % of control and 168 % of control
c1ccc(CNc2ncnc3[nH]ncc23)cc1,T/C,[20],100 % of control
same,T/C,[21],110 % of control
same,T/C,[1],120 % of control and 90 % of control
same,T/C,[2],105 % of control and 110 % of control
CC(=O)[C@@]1(O)CC[C@H]2[C@@H]3C[C@H](C)C4=CC(=O)C=C[C@]4(C)[C@@]3(F)[C@@H](O)C[C@@]21C,T/C,[15],107 % of control
same,T/C,[16],107 % of control
same,T/C,[22],107 % of control
same,T/C,[23],100 % of control
C/C=C1/CN(C)C2Cc3c([nH]c4ccccc34)C(c3cc4[nH]c5c(c4cc3OC)CCN3CC4CC(C(C)O)C3C5(C(=O)OC)C4)CC1C2C(=O)OC (centres undefined),T/C,"dose: 5.0 mg/kg/injection, schedule: Q01DX010 (ip), vehicle: water",98 % of control
same,T/C,"dose: 10.0 mg/kg/injection, schedule: Q01DX010 (ip), vehicle: other",103 % of control
same,T/C,"dose: 10.0 mg/kg/injection, schedule: Q01DX010 (ip), vehicle: water",96 % of control
same,T/C,"dose: 15.0 mg/kg/injection, schedule: Q01DX010 (ip), vehicle: water",94 % of control
same,T/C,"dose: 20.0 mg/kg/injection, schedule: Q01DX010 (ip), vehicle: other",92 % of control
same,T/C,"dose: 20.0 mg/kg/injection, schedule: Q01DX010 (ip), vehicle: water",107 % of control
same,T/C,"dose: 30.0 mg/kg/injection, schedule: Q01DX010 (ip), vehicle: other",94 % of control
same,T/C,"dose: 40.0 mg/kg/injection, schedule: Q01DX010 (ip), vehicle: other",92 % of control
C[C@@H](N)[C@@H](O)c1ccccc1,T/C,"dose: 0.39 mg/kg/injection, schedule: Q01DX010 (ip), vehicle: saline",103 % of control
same,T/C,[24],100 % of control
same,T/C,[25],100 % of control
same,T/C,[26],103 % of control
CC1CCOS(=O)O1 (centres undefined),T/C,[12],103 % of control
same,T/C,[13],100 % of control
same,T/C,[14],100 % of control
CC(=O)NCCCCCCCCCCNC(C)=O,T/C,[4],100 % of control
same,T/C,[5],100 % of control
same,T/C,[6],92 % of control
same,T/C,[27],96 % of control
CC(=O)NCCCCCCNC(C)=O,T/C,[4],93 % of control
same,T/C,[5],96 % of control
same,T/C,[6],96 % of control
same,T/C,[27],100 % of control
O=C(NCCCCC(NC(=O)c1ccccc1)C(=O)NCCCCCCNCCCCCCNC(=O)C(CCCCNC(=O)c1ccccc1)NC(=O)c1ccccc1)c1ccccc1 (centres undefined),T/C,[3],100 % of control
same,T/C,[4],110 % of control
same,T/C,[5],100 % of control
same,T/C,[6],106 % of control
C1CCNCC1,T/C,[7],96 % of control
same,T/C,[3],100 % of control
same,T/C,[4],100 % of control
same,T/C,[5],96 % of control
O=c1cccc2n1CC1CNC[C@H]2C1,T/C,[24],100 % of control
same,T/C,[25],100 % of control
same,T/C,[26],103 % of control
same,T/C,[19],100 % of control
O=C(CNC(=O)OCc1ccccc1)NCCCCCCNCCCCCCNC(=O)CNC(=O)OCc1ccccc1,T/C,[3],100 % of control
same,T/C,[4],107 % of control
same,T/C,[5],103 % of control
same,T/C,[6],100 % of control
CC(/C=N/N=C(N)N)=N\NC(N)=S,T/C,[4],100 % of control
same,T/C,[5],100 % of control
same,T/C,[6],100 % of control
CC(=O)c1ccc[nH]1,T/C,[18],100 % of control
same,T/C,[17],96 % of control
O=C(NCCCCC(NC(=O)OCc1ccccc1)C(=O)NCCCNCCCCNCCCNC(=O)C(CCCCNC(=O)OCc1ccccc1)NC(=O)OCc1ccccc1)OCc1ccccc1 (centres undefined),T/C,[28],100 % of control
same,T/C,[11],100 % of control
same,T/C,[12],100 % of control
CCC1=CC2CN3CCc4c([nH]c5ccccc45)C(C(=O)OC)(C2)C13 (centres undefined),T/C,[28],117 % of control
same,T/C,[11],103 % of control
same,T/C,[12],100 % of control
same,T/C,[13],92 % of control
C[C@]12CCC(=O)C[C@H]1CC[C@@H]1[C@@H]2CC[C@@]2(C)[C@H]1CC[C@]2(C)O,T/C,[22],100 % of control
same,T/C,[23],100 % of control
same,T/C,"dose: 200.0 mg/kg/injection, schedule: Q01DX010 (sc), vehicle: steriod suspending solution",96 % of control
same,T/C,"dose: 400.0 mg/kg/injection, schedule: Q01DX010 (sc), vehicle: steriod suspending solution",96 % of control
CC(=O)OC(C)(C)/C=C/C(=O)[C@](C)(O)[C@H]1[C@H](O)C[C@@]2(C)[C@@H]3CC=C4[C@@H](CC[C@H](O)C4(C)C)[C@]3(CO)C(=O)C[C@]12C,T/C,[8],103 % of control
same,T/C,[9],100 % of control
same,T/C,[10],103 % of control
same,T/C,"dose: 0.57 mg/kg/injection, schedule: Q01DX010 (ip), vehicle: saline",103 % of control
CCNc1nncs1,T/C,[20],100 % of control
same,T/C,[21],96 % of control
